{
  "source": "patent US20180147177A1",
  "about": "“Antibacterial Compositions Comprising Copper Oxo-Hydroxide Nanoparticles and Their Uses as Biocidal Agents” (Medical Research Council, priority 2015, published 2018)",
  "key": {"[1]": {"tested_on": "Human dermal fibroblast cells (cell line CCD-25SK)", "assay": "Cell proliferation of skin fibroblasts (IncuCyte confluence AUC)", "format": "cell-based", "details": "CCD-25Sk skin fibroblasts, 48 hours", "procedure": "CuCl2 and AgNO3 were also tested in parallel as positive controls. Percentage of cell confluence was determined experimentally using an IncuCyte Zoom and plotted overtime to determine the area under the curve (AUC) for each concentration tested. Cell proliferation was used as an indication for cell toxicity and was determined by normalising the AUC of cells exposed to the testing compounds against those of cells growing at normal rates (control)."}, "V. fischeri": {"tested_on": "V. fischeri", "assay": "Minimum bactericidal concentration (liquid incubation, then agar plates)", "format": "cell-based", "details": "n = 1"}, "E. coli MC1061": {"tested_on": "E. coli MC1061", "assay": "Minimum bactericidal concentration (liquid incubation, then agar plates)", "format": "cell-based", "details": "n = 1"}, "P. aeruginosa": {"tested_on": "P. aeruginosa", "assay": "Minimum bactericidal concentration (liquid incubation, then agar plates)", "format": "cell-based", "details": "n = 1"}, "[2]": {"assay": "Copper dispersibility in MOPS buffer pH 7.4", "format": "physicochemical", "details": "MOPS buffer pH 7.4±0.2, copper added up to 500 ppm", "procedure": "Stock copper materials were diluted in 50 mM 3-(N-morpholino)propanesulfonic acid (MOPS) buffer at pH 7.4±0.2. Final copper concentrations varied between 10 and 500 ppm. Microparticulate copper was removed by centrifugation at 16000 g for 5 minutes. Total copper and supernatant (i.e. disperse fraction) were analysed by Inductively Coupled Plasma-Optical Emission Spectroscopy (ICP-OES) as described in section 2.4.1."}, "[3]": {"assay": "Copper release from a gel matrix (HEC gel release assay)", "format": "physicochemical", "details": "HEC gel with 250 ppm Cu, bicarbonate solution pH 7, over 24 hours", "experimental": "This assay consisted of exposing the copper-containing HEC—with specific surface area (7.1 cm^2)—to a bicarbonate buffered solution at pH 7.0±0.2, following copper concentration over time.\n10 g of the gel was poured into a 50 ml falcon tube and let settle down overnight. 10 ml of a 50 mM NaHCO3 solution at pH 7±0.2 were carefully transferred on the surface of the gel. Samples were collected over 24 hours and copper concentration in the overhead solution was determined by ICP-OES (see section 2.4.1.)."}, "B. subtilis BR151": {"tested_on": "B. subtilis BR151", "assay": "Minimum bactericidal concentration (liquid incubation, then agar plates)", "format": "cell-based", "details": "n = 1"}, "S. aureus RN4220": {"tested_on": "S. aureus RN4220", "assay": "Minimum bactericidal concentration (liquid incubation, then agar plates)", "format": "cell-based", "details": "n = 1"}, "[4]": {"tested_on": "Escherichia coli NCTC11100", "assay": "Bacterial growth inhibition assay (turbidimetric, OD 595 nm, HMM medium)", "format": "cell-based", "details": "E. coli, no copper", "experimental": "Antimicrobial activity was assessed through determination of bacterial growth inhibition in the presence of copper compounds. A turbidimetric assay was used to follow bacterial concentration over time as this is proportional to optical density (OD at 595 nm) in liquid medium, allowing an easy screening of bacterial growth over time. Escherichia coli NCTC11100 and Staphylococcus aureus RN4220 were the tested microorganisms in this assay. Stock bacterial colonies were kept in cultivated in agar plates and on the day before the experiment, one colony was transferred into 10 ml of HMM liquid medium and grown overnight at 30° C. under constant shaking (80 rpm) in an incubator. […] Copper stock solutions (refer to section 2.1) were sequentially diluted in HMM to achieve typical concentrations between 0.8 and 100 ppm Cu in a volume of 0.1 ml. Next, 0.1 ml of bacterial culture was added and incubated with copper at 30° C. under constant agitation (80 rpm). Final copper concentrations in the assay ranged between 0.4 and 50 ppm, and OD was measured every hour for a typical period of 7-8 hours to follow bacterial growth. OD background, i.e. OD absorbance not caused by bacteria, was determined to remove readout interference from copper and broth. Growth inhibition was calculated as follows: […]"}},
  "data": [
    {"compound": "O=[N+]([O-])[O-].[Ag+]", "note": "[AgNO3]", "values": [
      {"measurement": "concentration from which cell proliferation decreased", "setting": "[1]", "result": "≥ 10000", "unit": "ng/mL"}
    ]},
    {"compound": "O.O.[Cl][Cu][Cl]", "note": "[CuCl2, CuCl2.2H2O]", "values": [
      {"measurement": "MBC", "setting": "V. fischeri; 4 h incubation", "result": 100, "unit": "ppm Cu"},
      {"measurement": "MBC", "setting": "V. fischeri; 24 h incubation", "result": 100, "unit": "ppm Cu"},
      {"measurement": "MBC", "setting": "V. fischeri; 48 h incubation", "result": ">100", "unit": "ppm Cu"},
      {"measurement": "MBC", "setting": "V. fischeri; 72 h incubation", "result": ">100", "unit": "ppm Cu"},
      {"measurement": "MBC", "setting": "V. fischeri; 96 h incubation", "result": ">100", "unit": "ppm Cu"},
      {"measurement": "MBC", "setting": "E. coli MC1061; 4 h incubation", "result": 100, "unit": "ppm Cu"},
      {"measurement": "MBC", "setting": "E. coli MC1061; 24 h incubation", "result": 50, "unit": "ppm Cu"},
      {"measurement": "MBC", "setting": "E. coli MC1061; 48 h incubation", "result": 10, "unit": "ppm Cu"},
      {"measurement": "MBC", "setting": "E. coli MC1061; 72 h incubation", "result": 50, "unit": "ppm Cu"},
      {"measurement": "MBC", "setting": "E. coli MC1061; 96 h incubation", "result": 50, "unit": "ppm Cu"},
      {"measurement": "MBC", "setting": "P. aeruginosa; 4 h incubation", "result": 100, "unit": "ppm Cu"},
      {"measurement": "MBC", "setting": "P. aeruginosa; 24 h incubation", "result": 100, "unit": "ppm Cu"},
      {"measurement": "MBC", "setting": "P. aeruginosa; 48 h incubation", "result": 100, "unit": "ppm Cu"},
      {"measurement": "MBC", "setting": "P. aeruginosa; 72 h incubation", "result": 100, "unit": "ppm Cu"},
      {"measurement": "MBC", "setting": "P. aeruginosa; 96 h incubation", "result": 100, "unit": "ppm Cu"},
      {"measurement": "dispersible fraction (maximum)", "setting": "[2]", "result": "ca. 10 ppm of Cu"},
      {"measurement": "Cu released from HEC matrix", "setting": "[3]", "result": "≤ 10", "unit": "ppm"},
      {"measurement": "concentration from which cell proliferation decreased", "setting": "[1]", "result": "≥ 50000", "unit": "ng/mL"},
      {"measurement": "MBC", "setting": "B. subtilis BR151; 4 h incubation", "result": ">100", "unit": "ppm Cu"},
      {"measurement": "MBC", "setting": "B. subtilis BR151; 24 h incubation", "result": ">100", "unit": "ppm Cu"},
      {"measurement": "MBC", "setting": "B. subtilis BR151; 48 h incubation", "result": ">100", "unit": "ppm Cu"},
      {"measurement": "MBC", "setting": "B. subtilis BR151; 72 h incubation", "result": ">100", "unit": "ppm Cu"},
      {"measurement": "MBC", "setting": "B. subtilis BR151; 96 h incubation", "result": ">100", "unit": "ppm Cu"},
      {"measurement": "MBC", "setting": "S. aureus RN4220; 4 h incubation", "result": 100, "unit": "ppm Cu"},
      {"measurement": "MBC", "setting": "S. aureus RN4220; 24 h incubation", "result": 50, "unit": "ppm Cu"},
      {"measurement": "MBC", "setting": "S. aureus RN4220; 48 h incubation", "result": 50, "unit": "ppm Cu"},
      {"measurement": "MBC", "setting": "S. aureus RN4220; 72 h incubation", "result": 50, "unit": "ppm Cu"},
      {"measurement": "MBC", "setting": "S. aureus RN4220; 96 h incubation", "result": 50, "unit": "ppm Cu"}
    ]},
    {"compound": "O.O.O=C([O-])CN(CCN(CC(=O)[O-])CC(=O)O)CC(=O)O.[Na+].[Na+]", "note": "[EDTA, disodium ethylenediaminetetraacetate (EDTA) di-hydrate]", "values": [
      {"measurement": "antibacterial effect of the complexing agent alone (in words)", "setting": "[4]", "result": "had antibacterial effect"}
    ]}
  ]
}
